Reference: patent publication US20240099992A1, “COMPOSITIONS AND METHODS FOR TREATING CANCER” (priority 2021, published 2024)
Where two headings read alike, the source gives them in different places.

How the values were obtained:
[1] = test system: cancer cell lines C8161, MUM2C, SKOV3, OVACA3, ScNAP, DU145, H1299, A549, MDA231, SNU499; details: MTT, 24 hours
Method: The cancer cell lines were cultured in DMEM supplemented with 10% fetal bovine serum (FBS) and 100 U/mL penicillin-streptomycin in a humidified 37° C. incubator supplemented with 5% CO2. Cell proliferation was analyzed using MTT proliferation kit (Sigma). In brief, the cells were plated (5.0×10^3 cells per well) in 96-well plates and allowed to adhere overnight. The cells were then treated with methylenediamine dihydrochloride at various concentrations (0, 1 μM, 50 μM; 100 μM. 250 μM, 500 μM and 1 mM for 24 hours before the assay. After the incubation period, 10 μL of the MTT labeling reagent (final concentration 0.5 mg/mL) was added to each well. The microplate was incubated for 4 hours in a humidified atmosphere (37° C., 5% CO2). 100 μL of the Solubilization solution was added into each well. The plate was allowed to stand overnight in the incubator in a humidified atmosphere (37° C., 5% CO2). Complete solubilization of the purple formazan crystals was checked and the absorbance of the samples was measured using a microplate reader with wavelength of 570 nm.

[2] = test system: HL-60 (acute leukemia cell); details: 50 μM, 100 μM and 500 μM, 24 hours
Method: (§1) 50000 cells of each cell line were plated per well in a 24 well plate, treated with methylenediamine hydrochloride at different concentrations (0 as control, 50 μM, 100 μM and 500 μM) for 24 hours, then the living cells were counted. Jurkat: T cell leukemia, HL-60: acute leukemia cell; MV-411: B-myelomonocytic leukemia.

Jurkat (T cell leukemia) = details: 50 μM, 100 μM and 500 μM, 24 hours
Method: as §1

[3] = test system: MV-411 (B-myelomonocytic leukemia); details: 50 μM, 100 μM and 500 μM, 24 hours
Method: as §1

[4] = test system: H22, a mouse liver cancer cell line; details: for Tumor suppression rate at day 9: versus normal saline group; for Tumor suppression rate at day 9 / suppression of tumor growth in the mouse liver cancer model (in words): dihydrochloride; for suppression of tumor growth in the mouse liver cancer model (in words): 120 and 240 mg/Kg daily through mouth, dose dependent
Method: H22, a mouse liver cancer cell line from ATCC, was cultured in 1640 medium with 10% […] at 37° C., 5% CO2. The cells were harvest 48 hours later and diluted to 1×10^6 cells/mL with the medium. Kunming mice, male, and body weight of 20 to 23 grams were used for the in vivo study. The animals were allowed free access to food and water throughout the study. All experimental protocols described here were approved by the Ethics Review Committee for Animal Experimentation. 0.2 mL of 1×10^6/ml cell suspension was inoculated into the abdominal cavity of the Kunming mice. The H22 ascites was transplanted 5 days later. The H22 cells in the ascites were harvested, diluted to a concentration of 1×10^7/mL with sterilized NS, then 0.2 mL was injected subcutaneously into the right armpit region of the mice. […] The animals were randomly divided into 3 groups with 7 mice in each and received the drug through mouth daily. Group 1: normal saline; Group 2: Methylenediamine Dihydrochloride low dose of 120 mg/Kg; Group 3: methylenediamine dihydrochloride high dose of 240 mg/Kg. Two perpendicular dimensions (length and width) of the subcutaneous transplantation tumors were measured in every mouse at day 3, day 6 and day 9 to calculate the tumor volume which was compared among groups (volume=½×length×width^2). […] The tumor suppression rate was calculated as: tumor volume in normal saline group minus tumor volume in methylenediamine dihydrochloride treated group, then divided by tumor volume of normal saline group.

methylenediamine dihydrochloride
suppression of cell proliferation (in words) ([1]; 0 μM to 1 mM): suppressed with a dose dependent pattern
concentration at which suppression of most cancer cells' growth started [1]: 50 µM
concentration above which proliferation was significantly suppressed ([1]; dose dependent pattern): above 100 μM
suppression of living cells [2]: significant suppression
suppression of living cells (Jurkat (T cell leukemia)): significant suppression
suppression of living cells [3]: significant suppression
Average tumor volume, Day 3 ([4]; 120 mg/Kg daily through mouth): 0.43 cm^3
Average tumor volume, Day 6 ([4]; 120 mg/Kg daily through mouth): 0.85 cm^3
Average tumor volume, Day 9 ([4]; 120 mg/Kg daily through mouth): 1.21 cm^3
Tumor suppression rate at day 9 ([4]; 120 mg/Kg daily through mouth): 30.5%
Tumor suppression rate at day 9 ([4]; 120 mg/Kg daily through mouth, listed as Methylenediamine dihydrochloride): 30.5%
Average tumor volume, Day 3 ([4]; 240 mg/Kg daily through mouth): 0.41 cm^3
Average tumor volume, Day 6 ([4]; 240 mg/Kg daily through mouth): 0.78 cm^3
Average tumor volume, Day 9 ([4]; 240 mg/Kg daily through mouth): 1.10 cm^3
Tumor suppression rate at day 9 ([4]; 240 mg/Kg daily through mouth): 36.8%
Tumor suppression rate at day 9 ([4]; 240 mg/Kg daily through mouth, listed as Methylenediamine dihydrochloride): 36.8%
suppression of tumor growth in the mouse liver cancer model (in words) ([4]; listed as ethylenediamine dihydrochloride): effective in treating cancers
suppression of tumor growth in the mouse liver cancer model (in words) ([4]; listed as methylenediamine dihydrochloride): successfully suppressed tumor growth
